Converted amounts (≈) assume the structure as drawn. One block for each molecule: values may come before it.
Experiments:
[1] = test system: LP9 cells; test: Cell viability of LP9 mesothelial cells, 48 h, crystal violet staining; format: cell-based; conditions: VitE-TPGS (w/v) in 0.9% NaCl
Description: (§1) Studies were performed to test the effects on cell viability of mesothelial (LP9) and malignant mesothelioma (HM) cells in culture when contacted with thiostrepton (TS) or TS diluted in Vitamin E-TPGS (VitE-TPGS, D-alpha-tocopherol polyethylene glycol 1000 succinate).
(§2) Indicated cell lines were plated into 96 well plates and allowed to adhere overnight. The following day test compounds were serially diluted in duplicate wells onto cells in complete tissue culture media. VitE-TPGS was serially diluted from a starting concentration of 0.025% (w/v) in 0.9% NaCl and added to LP9 or HM cells (FIG. 1). TS, dissolved in DMSO, was diluted to a starting concentration of 20 μM into cell culture media and serially diluted or diluted from a 1.5 mM TS/DMSO/5% VitE-TPGS (33 mM)/0.9% NaCl solution to a starting concentration of 20 μM TS/0.06% VitE-TPGS and serially diluted onto LP9 or HM cells (FIG. 2). Cells were incubated with test compounds for 48 hours before determining cell number using an indirect readout of cell viability by staining residual cells with crystal violet. The inhibitory concentration (IC50) in which 50% of the cells are not viable, was determined for tested compounds.

[2] = test system: HM cells; test: Cell viability of HM malignant mesothelioma cells, 48 h, crystal violet staining; format: cell-based
Description: as §1, §2

[3] = physchem; conditions: 5% VitE-TPGS in normal saline, aqueous with cosolvent or surfactant or cyclodextrin, thermodynamic from solid
Description: (§3) This study was performed to determine the intrinsic solubility of the test article in a variety of formulation systems as detailed below.
(§4) This method measured equilibrium solubility after 24h incubation with the desired formulation mixture. The solubility of the test article in each formulation mixture was measured by comparison of the AUC of the LC/MS spectrum obtained by injection of the solution of the test article in the desired solvent to the AUC of a reference standard solution. […] The reference solution was made fresh for every time point. Data was then calculated to give % test article remaining as function of time.
(§5) 1) A stock solution of the active pharmaceutical ingredient (API) was prepared in a 1,4-dioxane at 10 mM. 2) Nineteen 200 μl portions of stock were dispensed into 19 clean 500 μl micro-centrifuge tubes and the solvent removed by a stream of nitrogen. The 19 tubes were marked with numbers 1-19. 3) Five 200 μl portions of stock were dispensed into 5 clean 200 μl micro-centrifuge tubes and the solvent removed by a stream of nitrogen; these tubes were marked: S1, S2, S3, S4 and S5 and were to be saved for quantization by LC/MS. 4) The vehicles were prepared on a w/w basis for co-solvents, and on a molar basis for salts. 5) 200 μL of each vehicle was introduced into the appropriate micro centrifuge tube 1-19, corresponding to that vehicle. The final concentration of API was 10 mM. These were the test samples. 6) The sample tubes 1-19 were sonicated for 30 min and then agitated for 24h. 7) The vessel was centrifuged and 50 μl of the supernatant was removed and diluted with 350 μl of acetonitrile for LC/MS analysis. These were the test samples. 8) Micro-centrifuge tubes S1-S5 were reconstituted immediately before analysis by adding 200 μl of acetonitrile and 200 μl od 1,4-dioxane to the tubes and sonicating for 30 min. These were the standards. 9) Before analysis all 24 tubes were centrifuged. 10) 50 μl of the clear supernatant from Sample tubes 1-19 was removed and diluted into 350 μl of acetonitrile for LC/MS analysis. 11) 100 μl of the clear supernatant from Standard tubes S1-S5 was removed and diluted into 300 μl of acetonitrile for LC/MS analysis.
(§6) 13) Quantization was based on comparison to the AUC from the stock solution and was relative.
(§7) A freshly prepared standard was used for each time point.

[4] = Equilibrium (intrinsic) solubility of the test article in formulation mixtures, 24h, LC/MS; conditions: for solubility at 24 h: aqueous with cosolvent or surfactant or cyclodextrin, thermodynamic from solid
Description: as §3, §4, §5, §6, §7

IC50 ([2]; HM cells, VitE-TPGS (w/v) in 0.9% NaCl): 0.0006%
Molecule: D-a-tocopheryl polyethylene glycol 1000 succinate [VitE-TPGS]
IC50 [1]: 0.0014%

Molecule: C=C(NC(=O)C(=C)NC(=O)c1csc(C2=N[C@@H]3c4csc(n4)[C@H]4NC(=O)c5csc(n5)[C@H]([C@](C)(O)[C@@H](C)O)NC(=O)[C@H]5CSC(=N5)/C(=C/C)NC(=O)[C@H]([C@@H](C)O)NC(=O)c5csc(n5)[C@]3(CC2)NC(=O)[C@H](C)NC(=O)C(=C)NC(=O)[C@H](C)NC(=O)[C@H]([C@@H](C)CC)N[C@@H]2C=Cc3c([C@H](C)O)cc(nc3[C@H]2O)C(=O)O[C@@H]4C)n1)C(N)=O [TS, Thiostrepton]
solubility at 24 h [3]: 1740 µM (≈ 2900 µg/mL)
solubility at 24 h ([4]; 1% polyacrylic acid (450,000 amw) in normal saline): 130 µM (≈ 216 µg/mL)
solubility at 24 h ([4]; 1% polyvinylalcohol (61,000 amw) in normal saline): 200 µM (≈ 333 µg/mL)
Solubility (in words) ([4]; 1,4-dioxane and chloroform): freely soluble
solubility at 24 h ([4]; 2% Tween 80 in normal saline): 220 µM (≈ 366 µg/mL)
solubility at 24 h ([4]; 10% Cremophore in normal saline): 1140 µM (≈ 1900 µg/mL)
solubility at 24 h ([4]; 10% Solutol HS 15 in normal saline): 520 µM (≈ 866 µg/mL)
solubility at 24 h ([4]; 10% capmul in normal saline): 50 µM (≈ 83.2 µg/mL)
solubility at 24 h ([4]; 10% meglumine in normal saline): 200 µM (≈ 333 µg/mL)
solubility at 24 h ([4]; 20% Captisol in normal saline): 380 µM (≈ 633 µg/mL)
solubility at 24 h ([4]; 20% Gelucire 44/14 in normal saline): 1170 µM (≈ 1950 µg/mL)
solubility at 24 h ([4]; 20% Labrafil 1944CS in normal saline): 490 µM (≈ 816 µg/mL)
solubility at 24 h ([4]; 20% Peceol in normal saline): 300 µM (≈ 499 µg/mL)
solubility at 24 h ([4]; 20% hydroxypropyl-beta-cyclodextrin in normal saline): 440 µM (≈ 733 µg/mL)
solubility at 24 h ([4]; 20% poloxamer 188 in normal saline): 210 µM (≈ 350 µg/mL)
solubility at 24 h ([4]; 20% transcutol in normal saline): 660 µM (≈ 1100 µg/mL)
solubility at 24 h ([4]; 30% Capryol 90 in normal saline): 1470 µM (≈ 2450 µg/mL)
solubility at 24 h ([4]; 30% Labrafac PG in normal saline): 380 µM (≈ 633 µg/mL)
solubility at 24 h ([4]; 30% Labrasol in normal saline): 150 µM (≈ 250 µg/mL)
solubility at 24 h ([4]; 30% polyethylene glycol 300 in normal saline): 320 µM (≈ 533 µg/mL)
Solubility (in words) ([4]; aqueous solutions and a variety of organic solvents): fairly low solubility
Sensitivity of HM cells compared to LP9 cells ([2]; HM vs LP9 cells): more sensitive
